# Earlier results in US11324821B2, “Triterpene saponin analogues” (ADJUVANCE TECHNOLOGIES, INC., priority 2017, dated 2022).
# Settings: cited from earlier work
substance,measurement,setting,value
QS-21,tolerated / maximum dose,"cancer patients, above it local erythema and systemic flu-like symptoms",100 to 150 µg
same,maximum dose,in vivo,50 µg
